This experiment in a line: Binding affinity to Drosophila HP1 chromodomain by fluorescence polarization assay. (In general: In fluorescence polarisation assays a small probe gives low polarisation when free and higher when bound to something large.)

In the case of `C[C@H](N)C(=O)N[C@@H](CCCNC(=N)N)C(=O)N[C@H](C(=O)N[C@@H](CCCCN)C(=O)N[C@@H](CCC(N)=O)C(=O)N[C@H](C(=O)N[C@@H](C)C(=O)N[C@@H](CCCNC(=N)N)C(=O)N[C@@H](CCCCN)C(=O)N[C@@H](CO)C(=O)N[C@H](C(=O)NCC(=O)NCC(=O)N[C@@H](CCCCN)C(=O)N[C@@H](C)C(=O)N[C@@H](Cc1ccc(O)cc1)C(=O)O)[C@@H](C)O)[C@@H](C)O)[C@@H](C)O`, the Kd was more than 1000 µM.

Broadly, the Kd is the free concentration of one partner at which half of the binding sites on the other are occupied at equilibrium, for simple one-to-one binding. Higher therefore signals lower affinity.
